# Source: US20190262357A1, “PREVENTATIVE OR THERAPEUTIC AGENT FOR PULMONARY HY[…] CRUDE DRUG COMPONENT” (TOHOKU UNIVERSITY, priority 2016, published 2019)
# System: pulmonary artery smooth muscle cells derived from patients with idiopathic pulmonary arterial hypertension (IPAH-PASMCs)
# Experiment: Suppression of proliferation of IPAH-PASMCs (MTT assay)
# Format: cell-based, human
# Details: 0.001-5 μM celastrol, 48 hours
# Method: The ability of celastrol to suppress the proliferation of pulmonary artery smooth muscle cells from patients with pulmonary hypertension (IPAH-PASMCs) was assessed. Specifically, first, on day −1, 66 μl each of pulmonary artery smooth muscle cells derived from patients with idiopathic pulmonary arterial hypertension (IPAH-PASMCs) suspended in a 10% FBS medium (DMEM supplemented with 10% FBS) were seeded in a 96-well plate at 50,000 cells/ml. 24 Hours after the cell seeding (the time point was defined as day 0), 33 μl each of 0.003 μM, 0.03 μM, 0.3 μM, 3 μM, and 15 μM solutions of celastrol in 10% FBS containing 1% DMSO were added to the wells so that the final concentrations were 0.001 μM, 0.01 μM, 0.1 μM, 1 μM, and 5 μM, respectively. As a control, 33 μl of 10% FBS containing 1% DMSO was added in place of celastrol. On day 0 (immediately before the addition of celastrol), a cell viability was confirmed by performing MTT assay using CellTiter 96 (trademark) AQueous One Solution Cell Proliferation Assay (promega). Further, on day 2, i.e., 48 hours after the addition of celastrol, the MTT assay was performed again to observe a change in cell viability. Thus, a cell proliferation-suppressing effect was assessed.
smiles,measurement,value
"CC1=C(O)C(=O)C=C2C1=CC=C1[C@@]2(C)CC[C@@]2(C)[C@@H]3C[C@](C)(C(=O)O)CC[C@]3(C)CC[C@]12C [celastrol, (2R,4aS,6aS,12bR,14aS,14bR)-10-hydroxy-2,4a,6a,9,12b,14a-hexamethyl-11-oxo-1,2,3,4,4a,5,6,6a,11,12b,13,14,14a,14b-tetradecahydropicene-2-carboxylic acid]",cell proliferation-suppressing effect,a cell proliferation-suppressing effect on pulmonary artery smooth muscle cells derived from patients with idiopathic pulmonary arterial hypertension was obtained
